Reference: PubChem BioAssay (NCI)
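Following 48 hours of exposure in 96-well plates, responses at five concentrations were used to interpolate endpoints linearly. At the TGI there is no net growth.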

Key:
Experiment in all cases: growth of human tumour cells (NCI), 48 h
786-0 renal = tested on: 786-0 renal
A498 renal = tested on: A498 renal
A549 NSCLC = tested on: A549 NSCLC
ACHN renal = tested on: ACHN renal
CAKI-1 renal = tested on: CAKI-1 renal
CCRF-CEM leukemia = tested on: CCRF-CEM leukemia
DLD-1 colon = tested on: DLD-1 colon
DMS 114 small cell lung = tested on: DMS 114 small cell lung
DMS 273 small cell lung = tested on: DMS 273 small cell lung
EKVX NSCLC = tested on: EKVX NSCLC
HCC-2998 colon = tested on: HCC-2998 colon
HCT-116 colon = tested on: HCT-116 colon
HCT-15 colon = tested on: HCT-15 colon
HL-60(TB) leukemia = tested on: HL-60(TB) leukemia
HOP-18 NSCLC = tested on: HOP-18 NSCLC
HOP-62 NSCLC = tested on: HOP-62 NSCLC
HOP-92 NSCLC = tested on: HOP-92 NSCLC
HT29 colon = tested on: HT29 colon
IGROV1 ovarian = tested on: IGROV1 ovarian
K-562 leukemia = tested on: K-562 leukemia
KM12 colon = tested on: KM12 colon
KM20L2 colon = tested on: KM20L2 colon
LOX IMVI melanoma = tested on: LOX IMVI melanoma
LXFL 529 NSCLC = tested on: LXFL 529 NSCLC
M14 melanoma = tested on: M14 melanoma
M19-MEL melanoma = tested on: M19-MEL melanoma
MALME-3M melanoma = tested on: MALME-3M melanoma
MOLT-4 leukemia = tested on: MOLT-4 leukemia
NCI-H226 lung = tested on: NCI-H226 lung
NCI-H23 lung = tested on: NCI-H23 lung
NCI-H460 lung = tested on: NCI-H460 lung
NCI-H522 lung = tested on: NCI-H522 lung
OVCAR-4 ovarian = tested on: OVCAR-4 ovarian
OVCAR-5 ovarian = tested on: OVCAR-5 ovarian
OVCAR-8 ovarian = tested on: OVCAR-8 ovarian
RPMI-8226 leukemia = tested on: RPMI-8226 leukemia
RXF 393 renal = tested on: RXF 393 renal
SF-268 CNS = tested on: SF-268 CNS
SF-295 CNS = tested on: SF-295 CNS
SF-539 CNS = tested on: SF-539 CNS
SK-MEL-2 melanoma = tested on: SK-MEL-2 melanoma
SK-MEL-28 melanoma = tested on: SK-MEL-28 melanoma
SK-MEL-5 melanoma = tested on: SK-MEL-5 melanoma
SK-OV-3 ovarian = tested on: SK-OV-3 ovarian
SN12C renal = tested on: SN12C renal
SNB-19 CNS = tested on: SNB-19 CNS
SNB-75 CNS = tested on: SNB-75 CNS
SNB-78 CNS = tested on: SNB-78 CNS
SW-620 colon = tested on: SW-620 colon
TK-10 renal = tested on: TK-10 renal
U251 CNS = tested on: U251 CNS
UACC-257 melanoma = tested on: UACC-257 melanoma
UACC-62 melanoma = tested on: UACC-62 melanoma
UO-31 renal = tested on: UO-31 renal
XF 498 CNS = tested on: XF 498 CNS
COLO 205 colon = tested on: COLO 205 colon
OVCAR-3 ovarian = tested on: OVCAR-3 ovarian
SR leukemia = tested on: SR leukemia

## CN(C)c1nc(=Nc2ccc3c(c2)OCO3)ss1
786-0 renal
  TGI: > 100 µM
A498 renal
  TGI: > 100 µM
A549 NSCLC
  TGI: > 100 µM
ACHN renal
  TGI: > 100 µM
CAKI-1 renal
  TGI: > 100 µM
CCRF-CEM leukemia
  TGI: > 100 µM
DLD-1 colon
  TGI: > 100 µM
DMS 114 small cell lung
  TGI: > 100 µM
DMS 273 small cell lung
  TGI: > 100 µM
EKVX NSCLC
  TGI: > 100 µM
HCC-2998 colon
  TGI: > 100 µM
HCT-116 colon
  TGI: > 100 µM
HCT-15 colon
  TGI: > 100 µM
HL-60(TB) leukemia
  TGI: 60 µM
HOP-18 NSCLC
  TGI: > 100 µM
HOP-62 NSCLC
  TGI: > 100 µM
HOP-92 NSCLC
  TGI: > 100 µM
HT29 colon
  TGI: > 100 µM
IGROV1 ovarian
  TGI: > 100 µM
K-562 leukemia
  TGI: > 100 µM
KM12 colon
  TGI: > 100 µM
KM20L2 colon
  TGI: > 100 µM
LOX IMVI melanoma
  TGI: > 100 µM
LXFL 529 NSCLC
  TGI: > 100 µM
M14 melanoma
  TGI: > 100 µM
M19-MEL melanoma
  TGI: > 100 µM
MALME-3M melanoma
  TGI: > 100 µM
MOLT-4 leukemia
  TGI: 78.4 µM
NCI-H226 lung
  TGI: > 100 µM
NCI-H23 lung
  TGI: > 100 µM
NCI-H460 lung
  TGI: > 100 µM
NCI-H522 lung
  TGI: > 100 µM
OVCAR-4 ovarian
  TGI: > 100 µM
OVCAR-5 ovarian
  TGI: > 100 µM
OVCAR-8 ovarian
  TGI: > 100 µM
RPMI-8226 leukemia
  TGI: 57.8 µM
RXF 393 renal
  TGI: > 100 µM
SF-268 CNS
  TGI: > 100 µM
SF-295 CNS
  TGI: > 100 µM
SF-539 CNS
  TGI: > 100 µM
SK-MEL-2 melanoma
  TGI: > 100 µM
SK-MEL-28 melanoma
  TGI: > 100 µM
SK-MEL-5 melanoma
  TGI: > 100 µM
SK-OV-3 ovarian
  TGI: > 100 µM
SN12C renal
  TGI: > 100 µM
SNB-19 CNS
  TGI: > 100 µM
SNB-75 CNS
  TGI: 66 µM
SNB-78 CNS
  TGI: > 100 µM
SW-620 colon
  TGI: > 100 µM
TK-10 renal
  TGI: > 100 µM
U251 CNS
  TGI: > 100 µM
UACC-257 melanoma
  TGI: > 100 µM
UACC-62 melanoma
  TGI: > 100 µM
UO-31 renal
  TGI: 83.3 µM
XF 498 CNS
  TGI: > 100 µM

## CCCCc1c2c(nc3c1CCCC3=O)C(=O)CCC2
786-0 renal
  TGI: > 100 µM
A498 renal
  TGI: > 100 µM
A549 NSCLC
  TGI: > 100 µM
ACHN renal
  TGI: > 100 µM
CCRF-CEM leukemia
  TGI: > 100 µM
COLO 205 colon
  TGI: > 100 µM
DLD-1 colon
  TGI: > 100 µM
DMS 114 small cell lung
  TGI: > 100 µM
DMS 273 small cell lung
  TGI: > 100 µM
EKVX NSCLC
  TGI: > 100 µM
HCC-2998 colon
  TGI: > 100 µM
HCT-116 colon
  TGI: > 100 µM
HCT-15 colon
  TGI: > 100 µM
HL-60(TB) leukemia
  TGI: > 100 µM
HOP-18 NSCLC
  TGI: > 100 µM
HOP-62 NSCLC
  TGI: > 100 µM
HOP-92 NSCLC
  TGI: > 100 µM
HT29 colon
  TGI: > 100 µM
IGROV1 ovarian
  TGI: > 100 µM
K-562 leukemia
  TGI: > 100 µM
KM12 colon
  TGI: > 100 µM
KM20L2 colon
  TGI: > 100 µM
LOX IMVI melanoma
  TGI: > 100 µM
LXFL 529 NSCLC
  TGI: > 100 µM
M14 melanoma
  TGI: > 100 µM
M19-MEL melanoma
  TGI: > 100 µM
MALME-3M melanoma
  TGI: > 100 µM
MOLT-4 leukemia
  TGI: > 100 µM
NCI-H226 lung
  TGI: > 100 µM
NCI-H23 lung
  TGI: > 100 µM
NCI-H460 lung
  TGI: > 100 µM
NCI-H522 lung
  TGI: > 100 µM
OVCAR-3 ovarian
  TGI: > 100 µM
OVCAR-4 ovarian
  TGI: > 100 µM
OVCAR-5 ovarian
  TGI: > 100 µM
OVCAR-8 ovarian
  TGI: > 100 µM
RPMI-8226 leukemia
  TGI: > 100 µM
RXF 393 renal
  TGI: > 100 µM
SF-268 CNS
  TGI: > 100 µM
SF-295 CNS
  TGI: > 100 µM
SF-539 CNS
  TGI: > 100 µM
SK-MEL-2 melanoma
  TGI: > 100 µM
SK-MEL-28 melanoma
  TGI: > 100 µM
SK-MEL-5 melanoma
  TGI: > 100 µM
SK-OV-3 ovarian
  TGI: > 100 µM
SN12C renal
  TGI: > 100 µM
SNB-19 CNS
  TGI: > 100 µM
SNB-75 CNS
  TGI: > 100 µM
SNB-78 CNS
  TGI: > 100 µM
SR leukemia
  TGI: > 100 µM
SW-620 colon
  TGI: > 100 µM
TK-10 renal
  TGI: > 100 µM
U251 CNS
  TGI: > 100 µM
UACC-257 melanoma
  TGI: > 100 µM
UACC-62 melanoma
  TGI: > 100 µM
UO-31 renal
  TGI: > 100 µM
XF 498 CNS
  TGI: > 100 µM
